The values below are quoted from earlier work in article PMC5224880, “Discovery and Molecular Basis of a Diverse Set of Polycomb Repressive Complex 2 Inhibitors Recognition by EED” (PLoS ONE, 2017).

In data set [1] the test system is tumor growth in the xenograft mouse model. More on the design: method as in PMID 28135235. Particulars: cited from earlier work.
The next data set deals with PRC2. More on the design: method as in PMID 28135235. The note with it: recombinant NCP as substrate; read-out: half-maximum stimulation (Kact) of PRC2 activity; cited from earlier work.

Entries after “also recorded” stand apart in the source; their conditions may differ.

For `CS(=O)(=O)c1ccc(-c2cnc(NCc3ccco3)n3cnnc23)cc1` [EED226], in data set [1], the antitumor activity entry is reported as “strong antitumor activity; also recorded: completely regressed tumor growth”.
Regarding “H3K27me3 stimulatory peptide: activation peptide H3K27me3 (21–44) used to stimulate PRC2 activity for the nucleosome substrate”, in the data set with PRC2, the EC50 was 1 µM.
